Where two headings read alike, the source gives them in different places.
Biological target: TNFα (Homo sapiens, UniProt P01375)
Test: TNF induced HEK-Blue assay (NF-kB-driven secreted alkaline phosphatase reporter)
Assay type: cell-based
Settings: TNFα 0.5 ng/mL, HEK-Blue-CD40L cells, 18 h
Procedure, shortened: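 HEK-Blue-CD40L cells (NF-kB-driven SEAP reporter), 20,000/well, added after 30 min pre-incubation of compound (0.004–25 μM final) with TNFα 0.5 ng/mL final at 37 °C; 18 h incubation. SEAP read with QUANTI-Blue at 620 nm; IC50 from 4-parameter logistic fit, normalized to unstimulated and stimulated DMSO controls.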

[1] = read-out: TNF induced HEK-Blue assay IC50 value

Sequence of TNFα (P01375 77-233 limits assumed): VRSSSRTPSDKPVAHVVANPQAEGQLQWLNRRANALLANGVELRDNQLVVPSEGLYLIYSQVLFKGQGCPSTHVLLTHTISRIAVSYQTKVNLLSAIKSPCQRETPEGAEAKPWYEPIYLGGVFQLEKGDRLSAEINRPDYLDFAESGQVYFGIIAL

Compound | IC50 [1] | IC50 (TNF induced HEK-Blue assay IC50 value)
Cc1ccc(C)c(Nc2c(C)c(O)nc3ccc(-c4cnc(C(C)(C)O)nc4)cc23)c1 [Example 181, 4-((2,5-dimethylphenyl)amino)-6-(2-(2-hydroxypropan-2-yl)pyrimidin-5-yl)-3-methylquinolin-2-ol] | 10000 to 25000 nM | 
CCNCc1ccc(-c2ccc3ncc(Cl)c(N[C@H](C)c4ccccc4F)c3c2)cc1 [Example 29, (R)-3-chloro-6-(4-((ethylamino)methyl)phenyl)-N-(1-(2-fluorophenyl)ethyl)quinolin-4-amine] | 1000 to 10000 nM | 
Cc1nc2ccc(-c3cnc(C(C)(C)O)nc3)cc2c(C(O)C(C)CC(C)C)c1Cl (single isomer, unassigned) [Example 355, 1-(3-Chloro-6-(2-(2-hydroxypropan-2-yl)pyrimidin-5-yl)-2-methylquinolin-4-yl)-2,4-dimethylpentan-1-ol] | 1000 to 10000 nM | 
CC(Nc1c(Cl)cnc2ccc(-c3cnc(C(C)(C)O)nc3)cc12)c1ccc(C(F)(F)F)cc1 (racemic) [Example 150, 2-(5-(3-chloro-4-((1-(4-(trifluoromethyl)phenyl)ethyl)amino)quinolin-6-yl)pyrimidin-2-yl)propan-2-ol] | 10000 to 25000 nM | 
C[C@@H](Nc1c(Cl)cnc2ccc(-c3ccc(C4(N)CC4)cc3)cc12)c1ccccc1F [Example 102, (R)-6-(4-(1-aminocyclopropyl)phenyl)-3-chloro-N-(1-(2-fluorophenyl)ethyl)quinolin-4-amine] | < 1000 nM | 
CC(C)(O)c1ncc(-c2ccc3ncc(Cl)c(NC(CC(F)(F)F)c4ccccc4)c3c2)cn1 (racemic) [Example 165, 2-(5-(3-chloro-4-((3,3,3-trifluoro-1-phenylpropyl)amino)quinolin-6-yl)pyrimidin-2-yl)propan-2-ol] | < 1000 nM | 
Cc1ccc(C)c(Nc2c(Cl)c(C)nc3ccc(-c4ccc(CN5CCNCC5)cc4)cc23)c1 [Example 7, 3-chloro-N-(2,5-dimethylphenyl)-2-methyl-6-(4-(piperazin-1-ylmethyl)phenyl)quinolin-4-amine] | < 1000 nM | 
C[C@@H](Nc1c(Cl)cnc2ccc(-c3ccc(N4CCN[C@H](CO)C4)nc3)cc12)c1ccccc1F [Example 84, ((S)-4-(5-(3-chloro-4-(((R)-1-(2-fluorophenyl)ethyl)amino)quinolin-6-yl)pyridin-2-yl)piperazin-2-yl)methanol] | < 1000 nM | 
CC(Nc1c(Cl)cnc2cc(F)c(-c3ccc(C(O)CN4CCOCC4)cc3)cc12)c1ccccc1F (stereo not drawn) [Example 286, 1-(4-(3-chloro-7-fluoro-4-((1-(2-fluorophenyl)ethyl)amino)quinolin-6-yl)phenyl)-2-morpholinoethan-1-ol] | < 1000 nM | 
COc1cccc([C@@H](C)Nc2c(Cl)cnc3ccccc23)c1 [Example 462, (R)-3-chloro-N-(1-(3-methoxyphenyl)ethyl)quinolin-4-amine] | 10000 to 25000 nM | 
C[C@@H](Nc1c(Cl)cnc2ccccc12)c1cc(OCCCO)ccc1F [Example 458, (R)-3-(3-(1-((3-chloroquinolin-4-yl)amino)ethyl)-4-fluorophenoxy)propan-1-ol] | 1000 to 10000 nM | 
C[C@@H](Nc1c(Cl)cnc2ccccc12)c1cc(-c2cn(C)nc2C(F)(F)F)ccc1F [Example 472, (R)-3-chloro-N-(1-(2-fluoro-5-(1-methyl-3-(trifluoromethyl)-1H-pyrazol-4-yl)phenyl)ethyl)quinolin-4-amine] | 1000 to 10000 nM | 
CC(Nc1c(Cl)cnc2ccc(-c3cnc(C(C)(C)O)nc3)cc12)[C@@H]1CCCN(C(N)=O)C1 (single isomer, unassigned) [Example 104] | 1000 to 10000 nM | 
CC(C)C(Nc1c(Cl)cnc2ccc(-c3cnc(C(C)(C)O)nc3)cc12)c1ccccn1 (racemic) [Example 51, 2-(5-(3-chloro-4-((2-methyl-1-(pyridin-2-yl)propyl)amino)quinolin-6-yl)pyrimidin-2-yl)propan-2-ol] | < 1000 nM | 
CC(Nc1c(Cl)cnc2cc(F)c(-c3ccc(C4(CO)CC4)cc3)cc12)c1ccccc1F (racemic) [Example 264, (1-(4-(3-chloro-7-fluoro-4-((1-(2-fluorophenyl)ethyl)amino)quinolin-6-yl)phenyl)cyclopropyl)methanol] | < 1000 nM | 
CC(Nc1c(Cl)cnc2cc(F)c(-c3cnc(N4CCN(CC(=O)O)CC4)nc3)cc12)c1ccccc1F (single isomer, unassigned) [Example 242, 2-(4-(5-(3-chloro-7-fluoro-4-((1-(2-fluorophenyl)ethyl)amino)quinolin-6-yl)pyrimidin-2-yl)piperazin-1-yl)acetic acid] | < 1000 nM | 
Cc1nc2ccc(-c3cnc(C(C)(C)O)nc3)cc2c(N[C@H](C)c2cc(C(N)=O)ccc2F)c1C [Example 315, (R)-4-fluoro-3-(1-((6-(2-(2-hydroxypropan-2-yl)pyrimidin-5-yl)-2,3-dimethylquinolin-4-yl)amino)ethyl)benzamide] | 10000 to 25000 nM | 
C[C@@H](Nc1c(Cl)cnc2ccc(-c3cnc(C(C)(C)O)nc3)cc12)c1cc(CN)ccc1F [Example 429, (R)-2-(5-(4-((1-(5-(aminomethyl)-2-fluorophenyl)ethyl)amino)-3-chloroquinolin-6-yl)pyrimidin-2-yl)propan-2-ol] | < 1000 nM | 
Cc1ccc(F)c([C@H](Nc2c(Cl)c(C)nc3ccc(-c4cnc(C(C)(C)O)nc4)cc23)C(F)F)c1 [Example 351, (S)-2-(5-(3-chloro-4-((2,2-difluoro-1-(2-fluoro-5-methylphenyl)ethyl)amino)-2-methylquinolin-6-yl)pyrimidin-2-yl)propan-2-ol] | < 1000 nM | 
C[C@@H](Nc1c(Cl)cnc2ccccc12)c1cc(-c2cccc(N)c2)ccc1F [Example 526, (R)—N-(1-(3′-amino-4-fluoro-[1,1′-biphenyl]-3-yl)ethyl)-3-chloroquinolin-4-amine] | 1000 to 10000 nM | 
CC(Nc1c(Cl)cnc2cc(F)c(-c3cnc(C(C)(C)O)nc3)cc12)c1ccccc1F (stereo not drawn) [Example 252, 2-(5-(3-chloro-7-fluoro-4-((1-(2-fluorophenyl)ethyl)amino)quinolin-6-yl)pyrimidin-2-yl)propan-2-ol] |  | < 1000 nM

More lines, now with the values ahead:

IC50 [1] | IC50 (TNF induced HEK-Blue assay IC50 value) | Compound
< 1000 nM |  | Cc1nc2c(F)cc(-c3ccc(C(C)(C)O)cc3)cc2c(N[C@@H](c2ccccc2F)C(F)F)c1Cl [Example 305, (S)-2-(4-(3-chloro-4-((2,2-difluoro-1-(2-fluorophenyl)ethyl)amino)-8-fluoro-2-methylquinolin-6-yl)phenyl)propan-2-ol]
< 1000 nM |  | CC(Nc1c(Cl)cnc2cc(F)c(-c3ccc(C4(O)CCC(C(=O)O)CC4)cc3)cc12)c1ccccc1F (racemic) [Example 251, 4-(4-(3-chloro-7-fluoro-4-((1-(2-fluorophenyl)ethyl)amino)quinolin-6-yl)phenyl)-4-hydroxycyclohexane-1-carboxylic acid]
< 1000 nM |  | COC(=O)c1ccc(F)c([C@@H](C)Nc2c(Cl)cnc3ccc(-c4cnc(C(C)(C)O)nc4)cc23)c1 [Example 415, Methyl (R)-3-(1-((3-chloro-6-(2-(2-hydroxypropan-2-yl)pyrimidin-5-yl)quinolin-4-yl)amino)ethyl)-4-fluorobenzoate]
< 1000 nM |  | Cc1nc2ccc(-c3cnc(C(C)(C)O)nc3)cc2c(N[C@@H](c2cc(C(O)CO)ccc2F)C(F)F)c1Cl (mixture of isomers) [Example 402, 1-(3-((S)-1-((3-chloro-6-(2-(2-hydroxypropan-2-yl)pyrimidin-5-yl)-2-methylquinolin-4-yl)amino)-2,2-difluoroethyl)-4-fluorophenyl)ethane-1,2-diol]
< 1000 nM |  | Cc1nc2cc(F)c(-c3cnc(C(C)(C)O)nc3)nc2c(N[C@@H](c2cc(CO)ccc2F)C(F)F)c1Cl [Example 496, (S)-2-(5-(7-chloro-8-((2,2-difluoro-1-(2-fluoro-5-(hydroxymethyl)phenyl)ethyl)amino)-3-fluoro-6-methyl-1,5-naphthyridin-2-yl)pyrimidin-2-yl)propan-2-ol]
< 1000 nM |  | CC(C)(O)c1ncc(-c2nc3c(N[C@H](c4cc(C#N)ccc4F)C(F)F)c(Cl)cnc3cc2F)cn1 [Example 489, (R)-3-(1-((3-chloro-7-fluoro-6-(2-(2-hydroxypropan-2-yl)pyrimidin-5-yl)-1,5-naphthyridin-4-yl)amino)-2,2-difluoroethyl)-4-fluorobenzonitrile]
< 1000 nM |  | CC(C)(O)CNc1ncc(-c2ccc3ncc(Cl)c(N[C@@H](c4ccccc4F)C(F)F)c3c2)cn1 [Example 80, (S)-1-((5-(3-chloro-4-((2,2-difluoro-1-(2-fluorophenyl)ethyl)amino)quinolin-6-yl)pyrimidin-2-yl)amino)-2-methylpropan-2-ol]
< 1000 nM |  | Cc1nc2cc(F)c(-c3cnc(C(C)(C)O)nc3)cc2c(N[C@H](C)c2cccc(C#N)c2)c1Cl [Example 383, (R)-3-(1-((3-chloro-7-fluoro-6-(2-(2-hydroxypropan-2-yl)pyrimidin-5-yl)-2-methylquinolin-4-yl)amino)ethyl)benzonitrile]
< 1000 nM |  | Cc1nc2ccc(-c3cnc(C(C)(C)O)nc3)cc2c(N[C@H](C)c2cc(-c3cn[nH]c3)ccc2F)c1Cl [Example 335, (R)-2-(5-(3-chloro-4-((1-(2-fluoro-5-(1H-pyrazol-4-yl)phenyl)ethyl)amino)-2-methylquinolin-6-yl)pyrimidin-2-yl) propan-2-ol]
< 1000 nM |  | CCC(Nc1c(Cl)cnc2ccc(-c3cnc(C(C)(C)O)nc3)cc12)c1nc(Br)ccc1F (racemic) [Example 64, 2-(5-(4-((1-(6-bromo-3-fluoropyridin-2-yl)propyl)amino)-3-chloroquinolin-6-yl)pyrimidin-2-yl)propan-2-ol]
< 1000 nM |  | C[C@@H](Nc1c(Cl)cnc2ccc(Cl)cc12)c1cc(-c2cncnc2)ccc1F [Example 545, (R)-3,6-dichloro-N-(1-(2-fluoro-5-(pyrimidin-5-yl)phenyl)ethyl)quinolin-4-amine]
< 1000 nM |  | C[C@@H](Nc1c(Cl)cnc2ccc(-c3ccc(C(C)(C)O)cc3)cc12)c1cnccn1 [Example 490, (R)-2-(4-(3-chloro-4-((1-(pyrazin-2-yl)ethyl)amino)quinolin-6-yl)phenyl)propan-2-ol]
